Measured values published in PubChem BioAssay (NCI).
Values joined by “and” are separate entries in the source; they are usually repeats but may differ in a detail not shown here. Identical values can stand only once.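 These data come from cells grown in 96-well plates and exposed to compound for 48 hours at five concentrations. GI50 is the concentration that inhibits growth by half. The concentration for full growth arrest is given as TGI.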

Key:
Assay in all cases: inhibition of tumour cell growth, NCI panel, 48 h
EKVX NSCLC = tested on: EKVX NSCLC
NCI-H522 lung = tested on: NCI-H522 lung
SNB-19 CNS = tested on: SNB-19 CNS
SF-268 CNS = tested on: SF-268 CNS
SK-MEL-5 melanoma = tested on: SK-MEL-5 melanoma
RXF 393 renal = tested on: RXF 393 renal
OVCAR-4 ovarian = tested on: OVCAR-4 ovarian
HOP-92 NSCLC = tested on: HOP-92 NSCLC
SK-MEL-28 melanoma = tested on: SK-MEL-28 melanoma
OVCAR-5 ovarian = tested on: OVCAR-5 ovarian

Row | SMILES | TGI (EKVX NSCLC) [µM] | TGI (NCI-H522 lung) [µM] | TGI (SNB-19 CNS) [µM] | TGI (SF-268 CNS) [µM] | TGI (SK-MEL-5 melanoma) | TGI (RXF 393 renal) | TGI (OVCAR-4 ovarian) [µM] | TGI (HOP-92 NSCLC) | TGI (SK-MEL-28 melanoma) [µM] | TGI (OVCAR-5 ovarian) [µM] | GI50 (EKVX NSCLC) | GI50 (NCI-H522 lung) | GI50 (SNB-19 CNS) | GI50 (SF-268 CNS) | GI50 (SK-MEL-5 melanoma) | GI50 (RXF 393 renal) | GI50 (OVCAR-4 ovarian) | GI50 (HOP-92 NSCLC) | GI50 (SK-MEL-28 melanoma) | GI50 (OVCAR-5 ovarian)
1 | O=C(CCCCCCCCCCc1ccccc1)c1c(O)cccc1O | 48.7 | 42.4 | 41.3 | 57.8 | 30.4 µM | 39.9 µM | 57.5 | 41.8 µM | 40.1 | 45.2 | – | – | – | – | – | – | – | – | – | –
2 | CC1CCC(O)C(C(O)CC2CC(=O)N(C)C(=O)C2)C1 (stereo not given) | > 100 | > 100 | > 100 | > 100 | – | > 100 µM | > 100 | > 100 µM | > 100 | > 100 | – | – | – | – | – | – | – | – | – | –
3 | O=C(N[C@@H]1CCCc2ccccc21)[C@H](CCC(=O)N1CCN(C2CCCCC2)CC1)N1C(=O)[C@@H](N2C(=O)OC[C@@H]2c2ccccc2)[C@H]1/C=C/c1ccccc1 | > 100 | 4.11 | 25.2 | 3.04 | 2.71 µM | 3.34 µM | 32 | 5.18 µM | 3.67 | 47.5 | 2.52 µM | 1.76 µM | 3.66 µM | 1.3 µM | 1.37 µM | 1.71 µM | 3.11 µM | 1.58 µM | 1.77 µM | 4.01 µM
4 | CC(=O)[CH-]C(=O)c1ccccc1.CC(=O)[CH-]C(=O)c1ccccc1.[O]=[U+2]=[O] | > 100 | > 100 | – | > 100 | > 100 µM | > 100 µM | > 100 | > 100 µM | > 100 | > 100 | 32.8 µM | 65.2 µM | – | 58.2 µM | 26.8 µM | 34 µM | 40.3 µM | 39.9 µM | 36.2 µM | > 100 µM
5 | O=C(/C=C/N1CCN(c2cccc(C(F)(F)F)c2)CC1)c1ccc(Cl)cc1Cl | 65.4 | > 100 | > 100 | 88.8 | 36.9 µM | 73.4 µM | 53.2 | 50.7 µM | 43.9 | > 100 | 27.9 µM | 36.1 µM | 47.7 µM | 28.6 µM | 19.2 µM | 30.9 µM | 25.1 µM | 20.6 µM | 21.1 µM | 30.6 µM
6 | Cn1c(=O)n(-c2ccc(C(C)(C)C#N)cc2)c2c3cc(-c4cnc5ccccc5c4)ccc3ncc21 | – | – | > 100 | > 100 | 0.0911 µM and 0.106 µM and 0.0859 µM | 0.0605 µM and 0.00781 µM and 0.0181 µM | – | 0.0622 µM and 0.122 µM and 0.0651 µM | – | > 100 | 0.0152 µM and 0.00573 µM and < 0.012 µM | < 0.0107 µM and 0.00646 µM and < 0.0112 µM | 0.012 µM and 0.00605 µM and 0.0102 µM | 0.0126 µM and 0.00657 µM and < 0.0109 µM | 0.0154 µM and 0.00646 µM and < 0.0152 µM | < 0.01 µM and 0.00351 µM | 0.0162 µM and 0.00409 µM and 0.01 µM | < 0.01 µM and 0.00431 µM | 0.016 µM and 0.0328 µM and < 0.0123 µM | 0.0213 µM and 0.00759 µM and 0.0159 µM
7 | C/C(=N\N(C)C)C(CN(C)C)C(c1ccccc1)c1c(O)c2ccccc2oc1=O (stereo not given) | > 100 | > 100 | > 100 | > 100 | > 100 µM | > 100 µM | > 100 | > 100 µM | > 100 | > 100 | – | – | – | – | – | – | – | – | – | –
8 | CC1OC(=O)N(CCCC=C2SCCCS2)C1=O (stereo not given) | > 100 | > 100 | > 100 | > 100 | – | > 100 µM | > 100 | > 100 µM | > 100 | > 100 | – | – | – | – | – | – | – | – | – | –
9 | CCCC/C(=N\N=C(N)N)c1ccc(F)cc1 | 25.5 | 16.5 | 13.8 | 20.8 | 4.27 µM | 5.81 µM | 20 | 8.93 µM | 17.6 | 17.8 | 4.5 µM | 3.79 µM | 2.64 µM | 5.58 µM | 1.48 µM | 2.04 µM | 5.27 µM | 2.13 µM | 4.21 µM | 5.08 µM
10 | COc1ccc2c(c1O)[C@@]13C=C(O)C(=O)C=C1[C@@H](C2)N(C)CC3 | > 100 | > 100 | > 100 | > 100 | > 100 µM | > 100 µM | > 100 | > 100 µM | > 100 | > 100 | – | – | – | – | – | – | – | – | – | –
11 | COc1cc(C2C3=C(COC3=O)N(CCO)c3cc4c(cc32)CCC4)cc(OC)c1O (stereo not given) | > 32.5 | 0.122 | > 32.5 | > 32.5 | > 11 µM | – | > 32.5 | > 32.5 µM | > 32.5 | > 32.5 | 1.38 µM | 0.0432 µM | 0.318 µM | 0.182 µM | 0.102 µM | 0.0943 µM | 0.278 µM | > 32.5 µM | 0.213 µM | 3.18 µM
12 | COc1ccc2nc3ccc(OC)cc3c(SCCCN)c2c1 | 35.6 | 3.09 | 36.7 | 14.5 | 25.7 µM | 9.85 µM | 17 | 13.1 µM | 3.86 | 28.3 | 15.9 µM | 1.51 µM | 14.4 µM | 4.67 µM | 7.82 µM | 2.42 µM | 5.02 µM | 3.59 µM | 1.99 µM | 13.5 µM
13 | O=c1[nH]c(=O)n(C2CC(O)C(CO)O2)cc1C#Cc1ccc(C(F)(F)F)cc1 (stereo not given) | > 100 | > 100 | > 100 | > 100 | > 100 µM | > 100 µM | > 100 | > 100 µM | > 100 | > 100 | – | – | – | – | – | – | – | – | – | –
14 | CC1=CC2=C(C)C3(CC3)[C@@](C)(O)C(=O)C2=C1 | 0.992 | 0.296 | 0.545 | 0.456 | 0.294 µM | 0.246 µM | 0.356 | 0.692 µM | 0.394 | 0.454 | – | – | – | – | – | – | – | – | – | –
15 | O=C1OCC(C(=O)c2cccc(O)c2)C1=O (stereo not given) | > 100 | > 100 | > 100 | > 100 | > 100 µM | > 100 µM | > 100 | > 100 µM | > 100 | > 100 | – | – | – | – | – | – | – | – | – | –
16 | CCOP(=O)(OCC)/C(C#N)=C\c1cccc2ccccc12 | > 100 | > 100 | > 100 | 64.9 | > 100 µM | > 100 µM | > 100 | 93.6 µM | > 100 | > 100 | – | – | – | – | – | – | – | – | – | –
17 | CC1=C(C#N)C(N)=C2C(C)=C(C#N)C(N)=C12 | > 100 | > 100 | > 100 | > 100 | > 100 µM | > 100 µM | > 100 | > 100 µM | – | > 100 | – | – | – | – | – | – | – | – | – | –
